Assay results: publication PMC5503199 (Molecular microbiology, 2009)
Where two headings read alike, the source gives them in different places.

How the values were obtained:
[1] = tested on: cbcXWV from PAO1 in QAC transporter-deficient BT strain; assay type: cell-based, Pseudomonas aeruginosa; details: BT(pCbcPAO1), unlabelled competitor 0.5 mM, 10 min
[2] = tested on: cbcXWV from DC3000 in QAC transporter-deficient BT strain; assay type: cell-based, Pseudomonas syringae pv. tomato; details: BT(pCbcDC3000), unlabelled competitor 0.5 mM, 10 min
[3] = tested on: cbcXWV from B728a in QAC transporter-deficient BT strain; assay type: cell-based, Pseudomonas syringae pv. syringae; details: BT(pCbcB728a), unlabelled competitor 0.5 mM, 10 min
CbcWV with BetXB728a = assay type: cell-based, Pseudomonas syringae pv. syringae; details: MKH13; pNcbcWV, pT-B3758; SBP BetXB728a; substrate 10 μM; single replication
[4] = tested on: Cbc core transporter CbcWV; assay type: cell-based, Pseudomonas aeruginosa; details: MKH13, pNcbcWV, SBP None, substrate 10 μM, single replication
CaiX with CbcWV = assay type: cell-based, Pseudomonas aeruginosa; details: MKH13; pNcbcWV, pT-PA5388; SBP CaiX; [^14C]carnitine 10 μM; competitor 1 mM
BetX with CbcWV = molecular target: T1, BetX with CbcWV (Pseudomonas aeruginosa, UniProt Q9HZ04); test: Competitive uptake, MKH13 expressing cbcWV and betX; assay type: cell-based; details: pNcbcWV, pT-PA3236, SBP BetX, [^14C]betaine 10 μM, competitor 1 mM
T1 sequence (Q9HZ04 26-285): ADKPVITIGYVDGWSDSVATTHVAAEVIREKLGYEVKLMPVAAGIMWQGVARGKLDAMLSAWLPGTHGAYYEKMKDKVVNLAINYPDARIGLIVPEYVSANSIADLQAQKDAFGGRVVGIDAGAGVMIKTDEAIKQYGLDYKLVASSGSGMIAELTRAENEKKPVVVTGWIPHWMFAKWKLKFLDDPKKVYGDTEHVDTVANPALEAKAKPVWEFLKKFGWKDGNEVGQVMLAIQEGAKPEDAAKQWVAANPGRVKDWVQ
T1 sequence (Q9HTI7 1-279 partner): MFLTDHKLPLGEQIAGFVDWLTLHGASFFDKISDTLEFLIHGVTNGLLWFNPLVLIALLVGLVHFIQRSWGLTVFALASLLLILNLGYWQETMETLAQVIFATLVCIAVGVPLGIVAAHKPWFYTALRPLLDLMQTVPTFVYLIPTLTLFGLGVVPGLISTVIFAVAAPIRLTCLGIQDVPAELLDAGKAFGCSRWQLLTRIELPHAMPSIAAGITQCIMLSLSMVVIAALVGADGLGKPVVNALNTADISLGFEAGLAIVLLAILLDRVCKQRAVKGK
T1 sequence (Q9HTI8 1-392 partner): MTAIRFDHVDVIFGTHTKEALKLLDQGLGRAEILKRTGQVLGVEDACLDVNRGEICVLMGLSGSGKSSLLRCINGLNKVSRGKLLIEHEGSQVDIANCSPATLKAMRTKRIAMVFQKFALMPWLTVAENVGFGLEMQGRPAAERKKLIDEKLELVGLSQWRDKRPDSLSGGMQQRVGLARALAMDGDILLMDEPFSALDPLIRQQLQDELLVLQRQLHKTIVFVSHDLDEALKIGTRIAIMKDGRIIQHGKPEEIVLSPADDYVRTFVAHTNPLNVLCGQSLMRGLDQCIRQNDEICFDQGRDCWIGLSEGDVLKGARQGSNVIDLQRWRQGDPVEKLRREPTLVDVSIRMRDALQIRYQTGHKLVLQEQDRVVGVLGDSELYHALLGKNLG

[5] = tested on: S. meliloti Cho transporter ChoXWV; assay type: cell-based, Sinorhizobium meliloti; details: MKH13; pNchoXWV, Plasmid 2 None; SBP ChoX; substrate 10 μM; single replication
CbcWV with BetXPAO1 = assay type: cell-based, Pseudomonas aeruginosa; details: MKH13; pNcbcWV, pT-PA3236; SBP BetXPAO1; substrate 10 μM; single replication
[6] = tested on: complete Cbc transporter CbcXWV (PAO1); assay type: cell-based, Pseudomonas aeruginosa; details: pNcbcXWV, substrate 10 μM
[7] = tested on: CbcXWV from P. aeruginosa PAO1; assay type: cell-based, Pseudomonas aeruginosa; details: MKH13, pCbcPAO1; radiolabelled substrate 1 mM; mean (SE), n = 10
[8] = tested on: S. meliloti ChoXWV transporter; assay type: cell-based, Sinorhizobium meliloti; details: substrate 10 μM
[9] = tested on: Cbc core transporter CbcWV (PAO1) with chromosomally encoded SBPs; assay type: cell-based, Pseudomonas aeruginosa; details: pNcbcWV, substrate 10 μM
CbcWV with CaiXPAO1 = assay type: cell-based, Pseudomonas aeruginosa; details: MKH13; pNcbcWV, pT-PA5388; SBP CaiXPAO1; substrate 10 μM; single replication
CbcXWV from B728a = assay type: cell-based, Pseudomonas syringae pv. syringae; details: Acella, pET-cbcB728a; 1 mM IPTG; substrate 1 mM; single colony
[10] = host BT0028Ko, mean (SE), n = 2
[11] = host BT2916Ko, single replication
[12] = host BT3758Ko, mean (SE), n = 3
[13] = pNchoXW, host BT0028Ko, mean (SE), n = 2
[14] = pNchoXW, host BT3758Ko, mean (SE), n = 3
[15] = pNchoXWV, host BT2916Ko, single replication

Structure (SMILES) | % inhibition of uptake of [^14C]substrate ([1]; [^14C]betaine 5 μM) [%] | % inhibition of uptake of [^14C]substrate ([1]; [^14C]carnitine 5 μM) [%] | % inhibition of uptake of [^14C]substrate ([1]; [^14C]choline 5 μM) [%] | % inhibition of uptake of [^14C]substrate ([2]; [^14C]betaine 5 μM) [%] | % inhibition of uptake of [^14C]substrate ([2]; [^14C]carnitine 5 μM) [%] | % inhibition of uptake of [^14C]substrate ([2]; [^14C]choline 5 μM) [%] | % inhibition of uptake of [^14C]substrate ([3]; [^14C]betaine 5 μM) [%] | % inhibition of uptake of [^14C]substrate ([3]; [^14C]carnitine 5 μM) [%] | % inhibition of uptake of [^14C]substrate ([3]; [^14C]choline 5 μM) [%] | Total uptake (CbcWV with BetXB728a) | Total uptake ([4]; Plasmid 2 None) | Total uptake ([4]; pTOK2T) | % inhibition of uptake of substrate by unlabelled competitor (CaiX with CbcWV) [%] | % inhibition of uptake of substrate by unlabelled competitor (BetX with CbcWV) [%] | Total uptake [5] | Total uptake (CbcWV with BetXPAO1) | Total uptake [6, 10] | Total uptake [6, 11] | Total uptake [6, 12] | Total uptake [7] | also measured
C[N+](C)(C)CC(=O)O [Betaine, glycine betaine] | 83 | 84 | 9 | 89 | 88 | 12 | 93 | 83 | 19 | 11.9 nmol (mg protein)^−1 | 0 nmol (mg protein)^−1 | 0 nmol (mg protein)^−1 | 5 | 94 | 2.7 nmol (mg protein)^−1 | 21.6 nmol (mg protein)^−1 | 16.1 (0.41) nmol (mg protein)^−1 | 16.0 nmol (mg protein)^−1 | 14.3 (0.24) nmol (mg protein)^−1 | 5.8 (1.1) nmol (mg protein)^−1 | Total uptake [8, 13]: 2.8 (0.3) nmol (mg protein)^−1; Total uptake [8, 14]: 3.0 (0.64) nmol (mg protein)^−1; Total uptake [8, 15]: 3.0 nmol (mg protein)^−1; Total uptake [9, 10]: 17.2 (0.2) nmol (mg protein)^−1; Total uptake [9, 11]: 17.2 nmol (mg protein)^−1; Total uptake [9, 12]: 0.1 (0.01) nmol (mg protein)^−1; Total uptake (CbcWV with CaiXPAO1): 0 nmol (mg protein)^−1; Total uptake (CbcXWV from B728a): 16.2 nmol (mg protein)^−1
C[N+](C)(C)C[C@H](O)CC(=O)[O-] [Carnitine, L-carnitine] | 2 | 94 | 1 | −2 | 94 | −6 | 5 | 93 | 5 | 0 nmol (mg protein)^−1 | 0 nmol (mg protein)^−1 | 0 nmol (mg protein)^−1 | 91 | 3 | 0 nmol (mg protein)^−1 | 0 nmol (mg protein)^−1 | 7.0 (0.4) nmol (mg protein)^−1 | 0.5 nmol (mg protein)^−1 | 13.0 (0.3) nmol (mg protein)^−1 | 0.8 (0.4) nmol (mg protein)^−1 | Total uptake [8, 13]: 1.2 (0.1) nmol (mg protein)^−1; Total uptake [8, 14]: 1.8 (0.4) nmol (mg protein)^−1; Total uptake [8, 15]: 0.1 nmol (mg protein)^−1; Total uptake [9, 10]: 16.3 (0.91) nmol (mg protein)^−1; Total uptake [9, 11]: 0.3 nmol (mg protein)^−1; Total uptake [9, 12]: 15.1 (0.16) nmol (mg protein)^−1; Total uptake (CbcWV with CaiXPAO1): 3.8 nmol (mg protein)^−1; Total uptake (CbcXWV from B728a): 0 nmol (mg protein)^−1
